# Assay results: ChEMBL document CHEMBL4020788, “Synthesis, SAR and molecular docking studies of benzo[d]thiazole-hydrazones as potential antibacterial and antifungal agents” (2017)
# Calls of active or inactive are those of the source. No cut-off for these calls is given here.
# Key:
# Type in all cases: functional
# Fusarium oxysporum [1] = test: Antifungal activity against Fusarium oxysporum at 75 ug/ml after 48 hrs by agar well diffusion method; settings: for zone of inhibition at 75 µg/mL: read-out: DIZ
# Staphylococcus aureus [2] = test: Antibacterial activity against Staphylococcus aureus at 50 ug/ml after 24 hrs by agar well diffusion method
# Aspergillus niger [3] = test: Antifungal activity against Aspergillus niger at 25 ug/ml after 48 hrs by agar well diffusion method
# Klebsiella pneumoniae [4] = test: Antibacterial activity against Klebsiella pneumoniae at 100 ug/ml after 24 hrs by agar well diffusion method
# Fusarium verticillioides [5] = test: Antifungal activity against Fusarium moniliforme at 25 ug/ml after 48 hrs by agar well diffusion method
# Fusarium oxysporum [6] = test: Antifungal activity against Fusarium oxysporum at 25 ug/ml after 48 hrs by agar well diffusion method
# Fusarium oxysporum [7] = test: Antifungal activity against Fusarium oxysporum at 50 ug/ml after 48 hrs by agar well diffusion method
# Aspergillus niger [8] = test: Antifungal activity against Aspergillus niger at 50 ug/ml after 48 hrs by agar well diffusion method
# Klebsiella pneumoniae [9] = test: Antibacterial activity against Klebsiella pneumoniae at 50 ug/ml after 24 hrs by agar well diffusion method
# Staphylococcus aureus [10] = test: Antibacterial activity against methicillin resistant Staphylococcus aureus MRSA090 at 50 ug/ml after 24 hrs by agar well diffusion method; settings: for zone of inhibition at 50 µg/mL: MRSA090, 24 h, read-out: DIZ
# Bacillus subtilis [11] = test: Antibacterial activity against Bacillus subtilis at 100 ug/ml after 24 hrs by agar well diffusion method
# Fusarium verticillioides [12] = test: Antifungal activity against Fusarium moniliforme at 75 ug/ml after 48 hrs by agar well diffusion method
# Staphylococcus aureus [13] = test: Antibacterial activity against methicillin resistant Staphylococcus aureus MRSA090 at 25 ug/ml after 24 hrs by agar well diffusion method; settings: for zone of inhibition at 25 µg/mL: MRSA090, 24 h, read-out: DIZ
# Fusarium verticillioides [14] = test: Antifungal activity against Fusarium moniliforme at 50 ug/ml after 48 hrs by agar well diffusion method
# Fusarium oxysporum [15] = test: Antifungal activity against Fusarium oxysporum at 100 ug/ml after 48 hrs by agar well diffusion method; settings: for zone of inhibition at 100 µg/mL: read-out: DIZ
# Staphylococcus aureus [16] = test: Antibacterial activity against Staphylococcus aureus at 75 ug/ml after 24 hrs by agar well diffusion method
# Bacillus subtilis [17] = test: Antibacterial activity against Bacillus subtilis at 25 ug/ml after 24 hrs by agar well diffusion method
# Bacillus subtilis [18] = test: Antibacterial activity against Bacillus subtilis at 75 ug/ml after 24 hrs by agar well diffusion method
# Staphylococcus aureus [19] = test: Antibacterial activity against methicillin resistant Staphylococcus aureus MRSA090 at 75 ug/ml after 24 hrs by agar well diffusion method; settings: for zone of inhibition at 75 µg/mL: MRSA090, 24 h, read-out: DIZ
# Staphylococcus aureus [20] = test: Antibacterial activity against Staphylococcus aureus at 100 ug/ml after 24 hrs by agar well diffusion method; settings: for zone of inhibition at 100 µg/mL: read-out: DIZ
# Escherichia coli [21] = test: Antibacterial activity against Escherichia coli at 25 ug/ml after 24 hrs by agar well diffusion method; settings: for zone of inhibition at 25 µg/mL: read-out: DIZ
# Escherichia coli [22] = test: Antibacterial activity against Escherichia coli at 75 ug/ml after 24 hrs by agar well diffusion method; settings: for zone of inhibition at 75 µg/mL: read-out: DIZ
# Staphylococcus aureus [23] = test: Antibacterial activity against Staphylococcus aureus at 25 ug/ml after 24 hrs by agar well diffusion method
# Fusarium verticillioides [24] = test: Antifungal activity against Fusarium moniliforme at 100 ug/ml after 48 hrs by agar well diffusion method
# Escherichia coli [25] = test: Antibacterial activity against Escherichia coli at 50 ug/ml after 24 hrs by agar well diffusion method; settings: for zone of inhibition at 50 µg/mL: read-out: DIZ
# Aspergillus niger [26] = test: Antifungal activity against Aspergillus niger at 75 ug/ml after 48 hrs by agar well diffusion method
# Klebsiella pneumoniae [27] = test: Antibacterial activity against Klebsiella pneumoniae at 75 ug/ml after 24 hrs by agar well diffusion method
# Aspergillus niger [28] = test: Antifungal activity against Aspergillus niger at 100 ug/ml after 48 hrs by agar well diffusion method
# Bacillus subtilis [29] = test: Antibacterial activity against Bacillus subtilis at 50 ug/ml after 24 hrs by agar well diffusion method
# Klebsiella pneumoniae [30] = test: Antibacterial activity against Klebsiella pneumoniae at 25 ug/ml after 24 hrs by agar well diffusion method
# Staphylococcus aureus [31] = test: Antibacterial activity against methicillin resistant Staphylococcus aureus MRSA090 at 100 ug/ml after 24 hrs by agar well diffusion method; settings: for zone of inhibition at 100 µg/mL: MRSA090, 24 h, read-out: DIZ
# Escherichia coli [32] = test: Antibacterial activity against Escherichia coli at 100 ug/ml after 24 hrs by agar well diffusion method; settings: for zone of inhibition at 100 µg/mL: read-out: DIZ
smiles,measurement,setting,value
COc1cc(/C=N/Nc2nc3cccc(C)c3s2)ccc1O,zone of inhibition at 75 µg/mL,Fusarium oxysporum [1],8 mm
same,zone of inhibition at 50 µg/mL,Staphylococcus aureus [2]; read-out: DIZ,17 mm
same,diameter of the inhibition zone (DIZ),Aspergillus niger [3],inactive
same,zone of inhibition at 100 µg/mL,Klebsiella pneumoniae [4]; read-out: DIZ,16 mm
same,diameter of the inhibition zone (DIZ),Fusarium verticillioides [5],inactive
same,diameter of the inhibition zone (DIZ),Fusarium oxysporum [6],inactive
same,diameter of the inhibition zone (DIZ),Fusarium oxysporum [7],inactive
same,diameter of the inhibition zone (DIZ),Aspergillus niger [8],inactive
same,zone of inhibition at 50 µg/mL,Klebsiella pneumoniae [9]; read-out: DIZ,10 mm
same,zone of inhibition at 50 µg/mL,Staphylococcus aureus [10],16 mm
same,zone of inhibition at 100 µg/mL,Bacillus subtilis [11]; read-out: DIZ,28 mm
same,diameter of the inhibition zone (DIZ),Fusarium verticillioides [12],inactive
same,zone of inhibition at 25 µg/mL,Staphylococcus aureus [13],12 mm
same,diameter of the inhibition zone (DIZ),Fusarium verticillioides [14],inactive
same,zone of inhibition at 100 µg/mL,Fusarium oxysporum [15],12 mm
same,zone of inhibition at 75 µg/mL,Staphylococcus aureus [16]; read-out: DIZ,22 mm
same,zone of inhibition at 25 µg/mL,Bacillus subtilis [17]; read-out: DIZ,15 mm
same,zone of inhibition at 75 µg/mL,Bacillus subtilis [18]; read-out: DIZ,23 mm
same,zone of inhibition at 75 µg/mL,Staphylococcus aureus [19],19 mm
same,zone of inhibition at 100 µg/mL,Staphylococcus aureus [20],26 mm
same,zone of inhibition at 25 µg/mL,Escherichia coli [21],10 mm
same,zone of inhibition at 75 µg/mL,Escherichia coli [22],21 mm
same,zone of inhibition at 25 µg/mL,Staphylococcus aureus [23]; read-out: DIZ,13 mm
same,diameter of the inhibition zone (DIZ),Fusarium verticillioides [24],inactive
same,zone of inhibition at 50 µg/mL,Escherichia coli [25],15 mm
same,diameter of the inhibition zone (DIZ),Aspergillus niger [26],inactive
same,zone of inhibition at 75 µg/mL,Klebsiella pneumoniae [27]; read-out: DIZ,14 mm
same,diameter of the inhibition zone (DIZ),Aspergillus niger [28],inactive
same,zone of inhibition at 50 µg/mL,Bacillus subtilis [29]; read-out: DIZ,19 mm
same,zone of inhibition at 25 µg/mL,Klebsiella pneumoniae [30]; read-out: DIZ,4 mm
same,zone of inhibition at 100 µg/mL,Staphylococcus aureus [31],24 mm
same,zone of inhibition at 100 µg/mL,Escherichia coli [32],27 mm
Cc1ccc(/C=N/Nc2nc3cccc(C)c3s2)cc1,zone of inhibition at 75 µg/mL,Fusarium oxysporum [1],14 mm
same,diameter of the inhibition zone (DIZ),Staphylococcus aureus [2],inactive
same,diameter of the inhibition zone (DIZ),Aspergillus niger [3],inactive
same,diameter of the inhibition zone (DIZ),Klebsiella pneumoniae [4],inactive
same,diameter of the inhibition zone (DIZ),Fusarium verticillioides [5],inactive
same,zone of inhibition at 25 µg/mL,Fusarium oxysporum [6]; read-out: DIZ,7 mm
same,zone of inhibition at 50 µg/mL,Fusarium oxysporum [7]; read-out: DIZ,11 mm
same,diameter of the inhibition zone (DIZ),Aspergillus niger [8],inactive
same,diameter of the inhibition zone (DIZ),Klebsiella pneumoniae [9],inactive
same,zone of inhibition at 50 µg/mL,Staphylococcus aureus [10],10 mm
same,diameter of the inhibition zone (DIZ),Bacillus subtilis [11],inactive
same,diameter of the inhibition zone (DIZ),Fusarium verticillioides [12],inactive
same,zone of inhibition at 25 µg/mL,Staphylococcus aureus [13],6 mm
same,diameter of the inhibition zone (DIZ),Fusarium verticillioides [14],inactive
same,zone of inhibition at 100 µg/mL,Fusarium oxysporum [15],17 mm
same,diameter of the inhibition zone (DIZ),Staphylococcus aureus [16],inactive
same,diameter of the inhibition zone (DIZ),Bacillus subtilis [17],inactive
same,diameter of the inhibition zone (DIZ),Bacillus subtilis [18],inactive
same,zone of inhibition at 75 µg/mL,Staphylococcus aureus [19],14 mm
same,zone of inhibition at 100 µg/mL,Staphylococcus aureus [20],10 mm
same,zone of inhibition at 25 µg/mL,Escherichia coli [21],10 mm
same,zone of inhibition at 75 µg/mL,Escherichia coli [22],17 mm
same,diameter of the inhibition zone (DIZ),Staphylococcus aureus [23],inactive
same,diameter of the inhibition zone (DIZ),Fusarium verticillioides [24],inactive
same,zone of inhibition at 50 µg/mL,Escherichia coli [25],14 mm
same,diameter of the inhibition zone (DIZ),Aspergillus niger [26],inactive
same,diameter of the inhibition zone (DIZ),Klebsiella pneumoniae [27],inactive
same,diameter of the inhibition zone (DIZ),Aspergillus niger [28],inactive
same,diameter of the inhibition zone (DIZ),Bacillus subtilis [29],inactive
same,diameter of the inhibition zone (DIZ),Klebsiella pneumoniae [30],inactive
same,zone of inhibition at 100 µg/mL,Staphylococcus aureus [31],17 mm
same,zone of inhibition at 100 µg/mL,Escherichia coli [32],22 mm
Cc1cccc2nc(N/N=C/CC(C)C)sc12,diameter of the inhibition zone (DIZ),Fusarium oxysporum [1],inactive
same,diameter of the inhibition zone (DIZ),Staphylococcus aureus [2],inactive
same,diameter of the inhibition zone (DIZ),Aspergillus niger [3],inactive
same,diameter of the inhibition zone (DIZ),Klebsiella pneumoniae [4],inactive
same,diameter of the inhibition zone (DIZ),Fusarium verticillioides [5],inactive
same,diameter of the inhibition zone (DIZ),Fusarium oxysporum [6],inactive
same,diameter of the inhibition zone (DIZ),Fusarium oxysporum [7],inactive
same,diameter of the inhibition zone (DIZ),Aspergillus niger [8],inactive
same,diameter of the inhibition zone (DIZ),Klebsiella pneumoniae [9],inactive
same,diameter of the inhibition zone (DIZ),Staphylococcus aureus [10],inactive
same,diameter of the inhibition zone (DIZ),Bacillus subtilis [11],inactive
same,diameter of the inhibition zone (DIZ),Fusarium verticillioides [12],inactive
same,diameter of the inhibition zone (DIZ),Staphylococcus aureus [13],inactive
same,diameter of the inhibition zone (DIZ),Fusarium verticillioides [14],inactive
same,diameter of the inhibition zone (DIZ),Fusarium oxysporum [15],inactive
same,diameter of the inhibition zone (DIZ),Staphylococcus aureus [16],inactive
same,diameter of the inhibition zone (DIZ),Bacillus subtilis [17],inactive
same,diameter of the inhibition zone (DIZ),Bacillus subtilis [18],inactive
same,diameter of the inhibition zone (DIZ),Staphylococcus aureus [19],inactive
same,diameter of the inhibition zone (DIZ),Staphylococcus aureus [20],inactive
same,diameter of the inhibition zone (DIZ),Escherichia coli [21],inactive
same,diameter of the inhibition zone (DIZ),Escherichia coli [22],inactive
same,diameter of the inhibition zone (DIZ),Staphylococcus aureus [23],inactive
same,diameter of the inhibition zone (DIZ),Fusarium verticillioides [24],inactive
same,diameter of the inhibition zone (DIZ),Escherichia coli [25],inactive
same,diameter of the inhibition zone (DIZ),Aspergillus niger [26],inactive
same,diameter of the inhibition zone (DIZ),Klebsiella pneumoniae [27],inactive
same,diameter of the inhibition zone (DIZ),Aspergillus niger [28],inactive
same,diameter of the inhibition zone (DIZ),Bacillus subtilis [29],inactive
same,diameter of the inhibition zone (DIZ),Klebsiella pneumoniae [30],inactive
same,diameter of the inhibition zone (DIZ),Staphylococcus aureus [31],inactive
same,diameter of the inhibition zone (DIZ),Escherichia coli [32],inactive
